Assay results reported in patent publication EP0812857A1, “Irreversible HIV protease inhibitors, compositions containing same and process for the preparation thereof” (LG Chemical Limited, priority 1996, dated 1997).
pIC50: −log10 of the molar value.

Columns and labels:
HIV-1 protease = biological target: T1, HIV-1 protease (Human immunodeficiency virus type 1 group M subtype B, UniProt P04585); experiment: Assay for inhibitory effect on HIV protease (irreversible inhibition kinetics, HPLC readout); assay type: biochemical; settings: second order rate constant; 2.6nM HIV-1 protease, pH 5.5; KINSIM/FITSIM fit; exact values hard to calculate above 10^9
T1 construct: addition of 2.6nM of HIV-1 protease
Description: The inhibitory effect on HIV protease of the compounds of the present invention was determined by the following method.
To a buffer solution comprising 50mM sodium acetate, pH 5.5, 1mM dithiothreitol (DTT), 1mM ethylenediaminetetra-acetate (EDTA), 0.75M ammonium sulfate, 0.2M sodium chloride and 0.1% NP40(NONIGET P-40; Sigma Chemical Co., U.S.A.), were added various concentrations of a compound selected from the compound obtained in Examples 1 to 9 to prepare a preincubation solution. Inhibition reaction was started with the addition of 2.6nM of HIV-1 protease to the preincubation solution. Each 10µl of the reaction solution was taken at a given time interval and added to 80µl of assay solution containing 100µM of reaction substrate in the same buffer solution as the above to assay for the residual enzyme activity. In this context, an oligopeptide(KM=20µM) consisting of 11 amino acids, i.e., Ser-Ile-Ala-Glu-(p-NO2)-Phe-Leu-Val-Arg-Ala-Lys-His, was used as a reaction substrate, which oligopeptide was to be cleaved in two by the breakage of amide bond between (P-NO2)-Phe and Leu upon the attack of HIV protease. The reaction rate was determined by subjecting the substrate before the reaction and the product after the reaction to HPLC separation and then measuring the relative amount of the product, using the strong absorbance of (p-NO2)-Phe at 280nm. The amounts of reduction in enzyme activity according to the elasped time were measured and the natural logarithmic values(ln) of the measured amounts were plotted against time to obtain a linear graph and kobs was calculated from the slope of the linear graph.
The inhibition constant was calculated according to the following equation: (1)/(kobs)=(1)/(kina)+(KI)/(kina)(1)/([I]) [formula] wherein: kobs is a rate constant indicating the rate of reduction in enzyme activity according to the elapsed time under the presence of a given concentration of inhibitor, kina is a rate constant indicating the rate of chemical reaction forming covalent bond between an enzyme and an inhibitor in Michaelis-Menten complex, KI is an inhibition constant indicating the dissociation rate of Michaelis-Menten complex into an enzyme and an inhibitor, and [I] means the inhibitor concentration.
The above equation is applicable to an experiment carried out under the condition in which the concentration of inhibitor is fear higher than that of enzyme (Steady State Kinetic). […] The inhibition constants KI and kina and second order rate constant kina/KI were obtained by inputting the value of [E]/([E]+[EI]+[EI']) [formula] into KINSIM/FITSIM program.

HIV-1 = experiment: Anti-viral activity: syncytium formation (Sup T1) or reverse transcriptase assay (H9); assay type: cell-based; settings: Human immunodeficiency virus 1; concentration that inhibits the proliferation of HIV by 50%; H9 and Sup T1 cell lines, 200 TCID50 HIV-1; cell line not given; read-out: IC
Description: The anti-viral activity of the compounds of the present invention was determined by measuring the concentration of the compounds that inhibits the proliferation of HIV by 50%(IC50) through a survey for syncytium formation or reverse transcriptase assay.
1 x 10^5 cells of each of H9(ATCC HTB 176) and Sup T1 cell lines were added to the wells of a 24-well microtiter plate and various concentrations of the compounds of the present invention were added thereto. 200 TCID50(200-fold of 50% tissue culture infection dose) of HIV-1 inoculum and rpmi-1640 medium(Sigma Chemical Co., U.S.A) were added successively to the wells and the plate was incubated at 37°C. In case of Sup T1, the number of syncytium formed was investigated after 3 to 9 days. IC50 of each compound was determined by measuring the concentration of inhibitor that can reduce the number of syncytium by 50% compared with those formed in the same condition without the inhibitor.
In case of H9, three-quarters(3/4) of the culture medium in volume was refreshed every 3 days; and after 9 days, 6ml of the culture fluid was taken and 2.5ml of 30% polyethyleneglycol(PEG, M.W. 6000-8000) and 0.4M NaCl were added thereto. The resulting solution was allowed to stand at 0°C overnight to precipitate virus particles. The solution was centrifuged at 2000rpm for 45 minutes, the supernatant was discarded therefrom and the precipitate was diluted with 20µl of a reverse transcriptase suspension buffer(50mM tris-HCl, pH 7.5, 1mM dithiothreitol, 20% glycerol, 0.25M KCl and 0.25% Triton X-100). The resulting suspension was stored in an Effendorf tube at -70°C until used. A procedure of freezing said virus suspension for 2 minutes in dry ice and thawing same at 37°C for 2 minutes was repeated three times and the resulting suspension was centrifuged at 4°C. The resulting supernatant was used in carrying out the reverse transcriptase assay.
10µl of the said viral suspension was added to a solution of: 10µl of buffer solution(250mM tris-HCl, pH 7.5, 37.5mM MgCl2, 0.25% triton X-100), 1.2µl of 200mM dithiothreitol, 5µl of 100µM oligo(dT)-poly(A)(Boeringer Manheim, 12-18 oligomer), 1µl(1µCi) of ^3H-TTP(Thymidinetri-phosphate) and 23.6µl of water; and the resulting mixture was placed at 37°C. After 1 hour, the mixture was poured onto a WHATMAN DEB1 filter and the filter was washed three times with 5ml of 2 x SSC buffer solution(17.53g of sodium chloride, 8.82g of sodium citrate, pH 7.0, 1 liter of water) for about 10 minutes each time and twice with 95% methanol for 10 seconds. The filter was put onto aluminium foil and dried with an infrared lamp. The amount of radioactivity was counted using a liquid scintillation counter.

in vitro = settings: human, h9 or sup t1 cells
Description: To determine the cytotoxicity of the compounds of the present invention, 0.1µM to 100µM of the novel compounds were added to H9 cell or Sup T1 cell and the mixture was cultured on a rpmi-1640 medium at 37°C. The medium was refreshed every 3 days and the extent of cell proliferation was observed using Hemacytometer according to the trypan blue dye exclusion technique which is well known in the art. CT50(i.e., concentration that causes death of cells by 50%) was determined. As control compounds, azidothymidine(AZT, Burrows-Wellcome Co.) and Ro-31 8959(Hoffmann-La Roche AG) were used. […]

| Compound | kinact/KI (HIV-1 protease) [M⁻¹ s⁻¹] | pIC50 (HIV-1) | CC50 (in vitro) [nM] |
| --- | --- | --- | --- |
| CC(C)(C)NS(=O)(=O)CC[C@@H]1O[C@@H]1[C@H](Cc1ccccc1)NC(=O)[C@@H](NC(=O)OCc1ccccc1)C(C)(C)S(C)(=O)=O [Ex. 1, N-t-butyl-5S-[N-benzyloxycarbonyl-β-methanesulfonyl-L-valinyl]amino-(4R,3S)-epoxy-6-phenylhexanesulfonamide] | 1.67e+07 to 1.67e+08 | 7.60 | > 10000 |
| CN(C(C)(C)C)S(=O)(=O)CC[C@@H]1O[C@@H]1[C@H](Cc1ccccc1)NC(=O)[C@@H](NC(=O)OCc1ccccc1)C(C)(C)S(C)(=O)=O [Ex. 4, N-t-butyl-N-methyl-5S-[N-benzyloxycarbonyl-β-methanesulfonyl-L-valinyl]amino-(4R,3S)-epoxy-6-phenylhexanesulfonamide] | 1.67e+07 to 1.67e+08 | 9.00 | > 10000 |
| CC(C)(C)NS(=O)(=O)CC[C@@H]1O[C@@H]1[C@H](Cc1ccccc1)NC(=O)[C@@H](NC(=O)c1ccc2ccccc2n1)C(C)(C)S(C)(=O)=O [Ex. 2, N-t-butyl-5S-[N-(2-quinolinecarbonyl)-β-methanesulfonyl-L-valinyl]amino-(4R,3S)-epoxy-6-phenylhexanesulfonamide] | 1.67e+07 to 1.67e+08 | 7.52 | > 10000 |
| Cc1cn([C@H]2C[C@H](N=[N+]=[N-])[C@@H](CO)O2)c(=O)[nH]c1=O [AZT, azidothymidine, reference compound] |  | 7.92 | > 10000 |
| CC(C)(C)NS(=O)(=O)CC[C@@H]1O[C@@H]1[C@H](Cc1ccccc1)NC(=O)[C@H](CC(N)=O)NC(=O)c1ccc2ccccc2n1 [Ex. 3] | 1.67e+07 to 1.67e+08 | 8.00 | > 10000 |
| CC(C)C(NS(=O)(=O)CC[C@@H]1O[C@@H]1[C@H](Cc1ccccc1)NC(=O)[C@@H](NC(=O)OCc1ccccc1)C(C)(C)S(C)(=O)=O)C(C)C [Ex. 9, N-(2,4-dimethyl-3-pentyl)-5S-[N-(2-benzyloxycarbonyl)-β-methanesulfonyl-L-valinyl]amino-(4R,3S)-epoxy-6-phenylhexanesulfonamide] | 1.67e+07 to 1.67e+08 | 8.00 | > 10000 |
| CCN(C(C)C)S(=O)(=O)CC[C@@H]1O[C@@H]1[C@H](Cc1ccccc1)NC(=O)[C@@H](NC(=O)c1ccc2ccccc2n1)C(C)(C)S(C)(=O)=O [Ex. 8, N-ethyl-N-isopropyl-5S-[N-(2-quinolinecarbonyl)-β-methanesulfonyl-L-valinyl]amino-(4R,3S)-epoxy-6-phenylhexanesulfonamide] | 1.67e+07 to 1.67e+08 | 8.00 | > 10000 |
| CCN(c1ccccc1)S(=O)(=O)CC[C@@H]1O[C@@H]1[C@H](Cc1ccccc1)NC(=O)[C@@H](NC(=O)c1ccc2ccccc2n1)C(C)(C)S(C)(=O)=O [Ex. 6, N-ethyl-N-phenyl-5S-[N-(2-quinolinecarbonyl)-β-methanesulfonyl-L-valinyl]amino-(4R,3S)-epoxy-6-phenylhexanesulfonamide] | 1.67e+07 to 1.67e+08 | 8.30 | > 10000 |
| CN(C(C)(C)C)S(=O)(=O)CC[C@@H]1O[C@@H]1[C@H](Cc1ccccc1)NC(=O)[C@@H](NC(=O)COc1cccc2cnccc12)C(C)(C)S(C)(=O)=O [Ex. 5, N-t-butyl-N-methyl-5S-(N-(5-isoquinolyloxymethylcarbonyl)-β-methanesulfonyl-L-valinyl]amino-(4R,3S)-epoxy-6-phenylhexanesulfonamide] | 1.67e+07 to 1.67e+08 | 8.30 | > 10000 |
| CCN(c1ccccc1)S(=O)(=O)CC[C@@H]1O[C@@H]1[C@H](Cc1ccccc1)NC(=O)[C@H](CC(N)=O)NC(=O)c1ccc2ccccc2n1 [Ex. 7, N-ethyl-N-phenyl-5S-[N-(2-quinolinecarbonyl)-L-asparaginyl]amino-(4R,3S)-epoxy-6-phenylhexanesulfonaimide] | 1.67e+07 to 1.67e+08 | 7.70 | > 10000 |
